The test system of experiment [1] is TC-1 tumor (mouse lung epithelial cancer cells). The experiment is described as follows: mouse model bearing TC-1 tumor. It counts as in vivo, C57BL/6 mice. As to conditions: oral gavage 120 mg/Kg/day, p<0.05. Here is the method:
(§1) The anti-tumor activity of Compound A was evaluated in the human NSCLC xenograft model. Nude mice and C57BL/6 mice were subcutaneously inoculated with H1299 (1×10^6) and mouse lung epithelial cancer cells, TC-1 (2×10^5), respectively. Tumor volumes were measured beginning on day 4 or 5 after tumor inoculation according to the relationship (L×D^2)/2, where L is the long dimension and D is the short dimension. The xenograft tumor-bearing mice were administered by oral gavage with compound A (dissolved in 10% dimethyl sulfoxide (DMSO)/cottonseed oil) at 120 mg/Kg/day for consecutive 5 days of the week. Animal body weight and tumor size were measured twice weekly. ANOVA followed by a multiple comparison Scheff test was conducted to determine significant differences among the treatment group at p<0.05.

The next experiment has as its system H1299 tumor. The experiment is described as follows: human NSCLC xenograft model bearing H1299 tumor. Particulars: oral gavage 120 mg/Kg/day; for tumor regression: 5 consecutive days of the week. It counts as in vivo, Nude mice. The procedure:
as §1
A general note: Xenograft models place foreign cells or tissue in a host animal.

Experiment [2] relates to lung cancer cells, A549, H1299, H1975, CL1-5, and PC-9. The experiment can be described thus: methylene blue dye assay, growth of lung cancer cells. It counts as cell-based. As to conditions: Homo sapiens; range over A549, H1299, H1975, CL1-5, PC-9; treated 1-5 μM for 1, 2 or 3 days; read-out: IC50 values (50% inhibition of cell viability). The source says: The effects of Compound A and Compound B on the growth of tumor cells were investigated in A549 (adenocarcinomic human alveolar epithelial cell), H1299 (human non-small cell lung carcinoma cell), H1975 (human non-small cell lung carcinoma cell), CL1-5 (human lung adenocarcinoma cell), and PC-9 (human lung adenocarcinoma cell) cell lines. A methylene blue dye assay (G. J. Finlay et al., Anal Biochem. 1984 June; 139(2):272-7) (11) was used to evaluate the inhibitory effect of Compound A and Compound B. Briefly, each of the cell lines with a logarithmic growth phase was cultured at a density of 2×10^4 to 4×10^4 cells per well in a 24-well plate, and treated with 1-5 μM of Compound A or Compound B for 1, 2, or 3 days. At the end of the incubation period, cells were fixed and stained with 0.5% methylene blue containing 50% ethanol for 30 minutes and then were washed and dried. The resulting colored residues were dissolved in 1% N-lauroyl-sarcosine, and optical density was read at 595 nm using a microplate reader. The IC50 value resulting from 50% inhibition of cell viability was calculated graphically as a comparison with vehicle control group. Each point represents the average of at least 3 independent experiments run in quadruple.

The structures appear in SMILES notation.

For the molecule `COc1ccc(/C=C/C(=O)C(F)(CC2CCC2)C(=O)/C=C/c2ccc(OC)c(OC)c2)cc1OC` [Compound A, 4-fluoro-4-cyclobutylmethyl-1,7-bis(3,4-dimethoxyphenyl)hepta-1,6-diene-3,5-dione], the “inhibitory activity on tumor” value in experiment [1] is given as “statistically significant inhibitory activity”; with H1299 tumor (H1299 tumor, p<0.05), “statistically significant inhibitory activity”. For the same molecule, the tumor regression result in the experiment on H1299 tumor (day 35) is listed as “around 36%”; in the experiment with H1299 tumor (day 50) it was “around 43%”. Further, in experiment [2], the IC50 – broadly, the concentration that gives 50% inhibition – fell in the range of 1.5 to 3 µM.
Regarding `COc1ccc(/C=C/C(=O)C(CC2CCC2)C(=O)/C=C/c2ccc(OC)c(OC)c2)cc1OC` [Compound B, 4-(cyclobutylmethyl)-1,7-bis(3,4-dimethoxyphenyl)hepta-1,6-diene-3,5-dione], the IC50 in experiment [2] is 2 to 3.3 µM.

The values above are taken from patent US20240238220A1, “METHODS FOR TREATING CANCERS” (priority 2023, published 2024).
